Assay [1] has as its system platelet-rich plasma (PRP). Briefly: Recalcification time of rat platelet-rich plasma. The note with it: 30 μM, vs 2% DMSO control. The protocol:
Example 5: Recalcification Time
1. Materials and Instruments
Isoflurane (Hana Pharm, cat. #9008), Isotonic Sodium Chloride Injection (Daihan Pharm, cat. #331), Citrate-dextrose solution (Sigma-Aldrich, cat. #C3821), Calcium chloride solution (Sigma-Aldrich, cat. #21115), 22G Syringe 10 mL (Koreavaccine), Dimethyl sulfoxide (Sigma-Aldrich, cat. #D5879), Apixaban (AK scientific, cat. #X1060), 96 Well Cell Culture Plates (SPL Life Sciences, cat. #30096), Synergy H4 Hybrid Microplate Reader (BioTek), Combi R515 Multi-purpose Centrifuge (Hanil Scientific), BS-06 Shaking & Heating Baths (JEIO TECH), and PST-60HL-4 Plate Shaker-Thermostat (Bio-San)
Seven-week-old male SD Rat (ORIENT BIO.) were maintained under controlled conditions of temperature (22±2° C.) and 12-h light/12-h dark cycle. Rats were housed in the pathogen-free facility of the Laboratory Animal Research Center in Ildong Pharmaceutical Co. Ltd. All procedures on animals were conducted in accordance with the relevant national regulatory guidelines and individual experiments approved by the Ildong Pharmaceutical Co. Ltd., Institutional Animal Care and Use Committee (IACUC) (approval No.: A2106-3, 2108-4).
The ability of test compounds to interfere with plasma coagulation, in the presence of platelets, was analyzing by measuring the recalcification time of rat plasma. The blood of animals was collected into 15 mL tubes containing Citrate-dextrose solution (9:1 v/v) before performing the assays. For recalcification time, platelet-rich plasma (PRP) samples were obtained by centrifugation at 360×g for 10 minutes. And the PRP were preincubated for 5 minutes (37° C.). In a 96 well microplate, test compounds (2 μL) were treated in 98 μL of platelet rich plasma. After mixing with a pipette, it was incubated at 37° C. for 15 minutes. The reaction was started by addition of 200 μL of pre-warmed CaCl2) (16 mM). Immediately, put the microplate in a microplate reader and the signals were measured by the following steps.
(1) 405 nm wavelength absorbance signals were recorded in every 10 seconds at 37° C.
(2) Basal absorbance signals were recorded for 0 second.
The signal variance of each of the test compounds was obtained by the following step.
(1) Background signals (t=O) were subtracted from recording values, and the resulting values were converted to change values. The values at 0 second were set to be zero.
The retardation time of test compound were calculated by the following formula:
Retardation time (sec)=[log EC50 (test sample)−log EC50 (DMSO control)]
As described above, a DMSO control group is a group to which 2% DMSO was treated.
The assay result is shown in Table 5, where compounds (30 μM) having less than 20 seconds of retardation time are marked by ‘C’; the compounds (30 μM) having retardation time of 20 seconds or more to less than 50 seconds are marked by ‘B’; and the compounds (30 μM) having retardation time of 50 seconds or more are marked by ‘A’.

In assay [2] the target is T1, human ANO6 (Homo sapiens, UniProt Q4KMQ2).
T1 construct: expressed in transfected cells
T1 sequence (Q4KMQ2 1-931 isoform Q4KMQ2-2): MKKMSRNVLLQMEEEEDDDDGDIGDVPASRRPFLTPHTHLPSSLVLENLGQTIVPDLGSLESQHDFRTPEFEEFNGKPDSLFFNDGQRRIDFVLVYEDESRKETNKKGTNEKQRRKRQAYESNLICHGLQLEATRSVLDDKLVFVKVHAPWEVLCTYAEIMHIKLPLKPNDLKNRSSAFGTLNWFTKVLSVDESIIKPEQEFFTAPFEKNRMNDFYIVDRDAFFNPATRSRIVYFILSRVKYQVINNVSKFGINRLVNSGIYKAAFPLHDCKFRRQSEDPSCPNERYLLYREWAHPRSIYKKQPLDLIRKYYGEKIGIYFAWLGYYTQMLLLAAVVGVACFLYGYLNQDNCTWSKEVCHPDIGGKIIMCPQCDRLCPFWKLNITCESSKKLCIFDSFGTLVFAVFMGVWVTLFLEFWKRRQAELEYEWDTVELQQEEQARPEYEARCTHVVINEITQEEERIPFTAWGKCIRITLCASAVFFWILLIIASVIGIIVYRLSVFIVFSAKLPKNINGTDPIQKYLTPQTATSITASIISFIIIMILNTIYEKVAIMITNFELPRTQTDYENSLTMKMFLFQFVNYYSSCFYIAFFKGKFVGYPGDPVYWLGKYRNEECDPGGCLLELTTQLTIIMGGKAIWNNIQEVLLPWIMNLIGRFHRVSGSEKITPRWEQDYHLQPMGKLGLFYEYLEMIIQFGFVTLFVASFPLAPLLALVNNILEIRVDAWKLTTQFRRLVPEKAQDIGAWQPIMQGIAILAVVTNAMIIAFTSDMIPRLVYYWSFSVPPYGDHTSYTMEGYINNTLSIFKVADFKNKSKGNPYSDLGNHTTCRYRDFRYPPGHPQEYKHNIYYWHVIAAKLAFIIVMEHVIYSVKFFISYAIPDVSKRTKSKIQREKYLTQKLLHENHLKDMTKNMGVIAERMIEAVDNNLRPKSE
Briefly: LACT C2 assay (phosphatidylserine scramblase function assay). It is filed as cell-based. The note with it: FRT cells expressing human ANO6, 10 μM ionomycin; for inhibition at 0.1 µM: test compound 100 nM, read-out: Inhibition Level 100 nM; for inhibition at 1 µM: test compound 1 μM, read-out: Inhibition Level 1 μM. The procedure, abridged:
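Inhibition was normalised between ionomycin-only (0%) and untreated (100%) wells, with triplicates averaged. Readout was background-corrected Lact-C2-GFP (500 nM) fluorescence from imaged cells. The cells were FRT cells stably expressing human ANO6, given compound at 1% DMSO for 10 min before a 10 min 10 μM ionomycin challenge.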

Assay [3] concerns the target T1, human ANO6. Briefly: YFP quenching assay (ANO6 ion channel activity). It is filed as cell-based. The note with it: 10 μM ionomycin; for inhibition at 1 µM: test compound 1 μM, read-out: Inhibition Level 1 μM; for inhibition at 30 µM: test compound 30 μM, read-out: Inhibition Level 30 μM. The procedure, abridged: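 FRT cells stably expressing human ANO6 and YFP-H148Q/I152L/F46L, preincubated 10 min at 40° C with compounds (1% DMSO) in PBS. Quench read every 0.4 s after injecting 140 mM SCN- with 10 μM ionomycin; % inhibition from the 3.6–7.6 s fluorescence difference, normalised to no-ionomycin (100%) and ionomycin-only (0%) wells, duplicate or triplicate.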

For the compound `O=C(N[C@@H]1C[C@H]1c1ccccc1)c1cccc(Nc2ccc(-c3cncnc3)cc2)c1` [Compound 165, N-((1R,2S)-2-phenylcyclopropyl)-3-((4-(pyrimidin-5-yl)phenyl)amino)benzamide], in assay [1], the “Inhibition Level (retardation time, recalcification time)” value is given as “C (compounds (30 μM) having less than 20 seconds of retardation time)”. Moreover, the inhibition at 0.1 µM on human ANO6 [2] was less than 30%.
For `O=C(Nc1cccc(F)c1)c1cccc(Nc2ccc(-c3ccccn3)cc2)c1` [Compound 154, N-(3-fluorophenyl)-3-((4-(pyridin-2-yl)phenyl)amino)benzamide], the “Inhibition Level (retardation time, recalcification time)” value in assay [1] is on record as “A (the compounds (30 μM) having retardation time of 50 seconds or more)”. Further, on human ANO6 [2], the inhibition at 0.1 µM is no less than 60% and the inhibition at 1 µM was no less than 60%.
As to `O=C(Nc1cccc(F)c1)c1cccc(Nc2ncc(-c3ccoc3)cn2)c1` [Compound 176, N-(3-fluorophenyl)-3-((5-(furan-3-yl)pyrimidin-2-yl)amino)benzamide], the “Inhibition Level (retardation time, recalcification time)” value in assay [1] is on record as “C (compounds (30 μM) having less than 20 seconds of retardation time)”.
For the compound `O=C(Nc1cccc([N+](=O)[O-])c1)c1cccc(Nc2ccc(-c3cccc(F)c3)cn2)c1` [Compound 141, 3-((5-(3-fluorophenyl)pyridin-2-yl)amino)-N-(3-nitrophenyl)benzamide], the “Inhibition Level (retardation time, recalcification time)” value in assay [1] is “A (the compounds (30 μM) having retardation time of 50 seconds or more)”. At human ANO6 [2], the inhibition at 0.1 µM is no less than 60% and the inhibition at 1 µM is no less than 60%.
As to `O=C(Nc1cccc(F)c1)c1cccc(Nc2ccc(-c3ccncn3)cc2)c1` [Compound 175, N-(3-fluorophenyl)-3-((4-(pyrimidin-4-yl)phenyl)amino)benzamide], in assay [1], the “Inhibition Level (retardation time, recalcification time)” value is on record as “B (the compounds (30 μM) having retardation time of 20 seconds or more to less than 50 seconds)”. The inhibition at 0.1 µM at human ANO6 [2] was no less than 60%.
As for `O=C(NCCC12CC3CC(CC(C3)C1)C2)c1cccc(Nc2ccc(-c3cccc(F)c3)cn2)c1` [Compound 142, N-(2-(adamantan-1-yl)ethyl)-3-((5-(3-fluorophenyl)pyridin-2-yl)amino)benzamide], the “Inhibition Level (retardation time, recalcification time)” value in assay [1] was “A (the compounds (30 μM) having retardation time of 50 seconds or more)”. At human ANO6 [2], the inhibition at 0.1 µM was no less than 60% and the inhibition at 1 µM was no less than 60%.
Turning to `O=C(Nc1cccc(F)c1)c1cccc(Nc2ccc(-c3cncnc3)cc2)c1` [Compound 164, N-(3-fluorophenyl)-3-((4-(pyrimidin-5-yl)phenyl)amino)benzamide], in assay [1], the “Inhibition Level (retardation time, recalcification time)” value is recorded as “C (compounds (30 μM) having less than 20 seconds of retardation time)”. Besides, on human ANO6 [2], the inhibition at 0.1 µM was in the range of 30 to 60%.
For the compound `O=C(Nc1cccc(F)c1)c1cccc(Nc2ccc(-c3ccccc3)cn2)c1` [Compound 128, N-(3-fluorophenyl)-3-((5-phenylpyridin-2-yl)amino)benzamide], the “Inhibition Level (retardation time, recalcification time)” value in assay [1] is “A (the compounds (30 μM) having retardation time of 50 seconds or more)”. In addition, on human ANO6 [2], the inhibition at 0.1 µM is no less than 60% and the inhibition at 1 µM is no less than 60%.
With `O=C(Nc1cccc(F)c1)c1cccc(Nc2ccc(-c3cccnc3)cc2)c1` [Compound 160, N-(3-fluorophenyl)-3-((4-(pyridin-3-yl)phenyl)amino)benzamide], the “Inhibition Level (retardation time, recalcification time)” value in assay [1] was “B (the compounds (30 μM) having retardation time of 20 seconds or more to less than 50 seconds)”. At human ANO6 [2], the inhibition at 0.1 µM was no less than 60% and the inhibition at 1 µM was no less than 60%.
`O=C(N[C@@H]1C[C@H]1c1ccccc1)c1cccc(Nc2ccc(-c3ncccn3)cc2)c1` [Compound 171, N-((1R,2S)-2-phenylcyclopropyl)-3-((4-(pyrimidin-2-yl)phenyl)amino)benzamide]: the “Inhibition Level (retardation time, recalcification time)” value in assay [1] is on record as “C (compounds (30 μM) having less than 20 seconds of retardation time)”. For the same compound, the inhibition at 0.1 µM at human ANO6 [2] is less than 30%.
For `O=C(Nc1cccc(F)c1)c1cccc(Nc2ccc(-c3ncccn3)cc2)c1` [Compound 170, N-(3-fluorophenyl)-3-((4-(pyrimidin-2-yl)phenyl)amino)benzamide] the same measures were “B (the compounds (30 μM) having retardation time of 20 seconds or more to less than 50 seconds)” and 30 to 60%.
Turning to `CC(C)CCNC(=O)c1cccc(Nc2ccc(-c3ccc(F)cc3)nn2)c1` [Compound A13], at human ANO6 [2], the inhibition at 0.1 µM was less than 30% and the inhibition at 1 µM is 30 to 60%. On human ANO6 [3], the inhibition at 1 µM was no less than 60% and the inhibition at 30 µM is no less than 60%.
As for `Cc1ccc(CNC(=O)c2cccc(Nc3ccc(-c4ccccc4)nn3)c2)cc1` [Compound A52], on human ANO6 [2], the inhibition at 0.1 µM is less than 30% and the inhibition at 1 µM is less than 30%. Moreover, on human ANO6 [3], the inhibition at 1 µM was no less than 60% and the inhibition at 30 µM was no less than 60%.
As to `CC(C)c1ccc(CNC(=O)c2cccc(Nc3ccc(-c4ccc(F)cc4)nn3)c2)cc1` [Compound A36], on human ANO6 [2], the inhibition at 0.1 µM was less than 30% and the inhibition at 1 µM is less than 30%. At human ANO6 [3], the inhibition at 1 µM was no less than 60% and the inhibition at 30 µM is no less than 60%.
`O=C(NCCc1ccccc1)c1cccc(Nc2ccc(-c3ccccc3)cn2)c1` [Compound 114, N-(2-phenylethyl)-3-[(5-phenylpyridin-2-yl)amino]benzamide]: at human ANO6 [2], the inhibition at 0.1 µM is less than 30%. The inhibition at 1 µM on human ANO6 [2] and on human ANO6 [3] was no less than 60% each time.
For the compound `O=C(NCCc1ccccc1)c1cccc(Nc2cnc(-c3ccccc3)cn2)c1` [Compound 51, N-(2-phenylethyl)-3-[(5-phenylpyrazin-2-yl)amino]benzamide], at human ANO6 [2], the inhibition at 0.1 µM lay in the range of 30 to 60% and the inhibition at 1 µM is no less than 60%. Besides, at human ANO6 [3], the inhibition at 1 µM is no less than 60%.
